Source: US7320973B2, “Dihydrodiaryloxazepine derivative and pharmaceutical composition containing the same” (Ajinomoto Co., Inc., priority 2001, dated 2008)
Where a name gives a salt, the structure may show the parent alone.

What was measured:
[1] = test system: abdominal pain threshold on colorectal distension; assay: Elevation of threshold value of abdominal pain in in vivo rat colorectal distension model; conditions: rats, oral administration
Experimental: The tests were conducted by a method of Saito et al. (Anesth. Analg. 1998; 87: 382-387).
Male Crj:CD rats (250-350 g) were used. A test compound was orally administered to them (n=8). A balloon (length: 7 cm) for dilating the colon was connected to a transducer . After fasting each rat for one day, the balloon was noninvasively inserted internally into the colorectal portion and the base of the balloon was positioned 1 cm from anus under light anesthesia with ether. Water was injected into the balloon at a rate of 0.9 ml/min until the inner pressure in the balloon reached 100 mmHg (cut off value). When the contraction of the abdominal muscle was macroscopically observed during the colon distension, the pressure in the balloon was taken as the threshold value of abdominal pain. The colon distension was conducted at intervals of at least 5 minutes.
The analgesic effect was determined according to the following formula: Analgesic effect (%)=[(threshold value of abdominal pain after treatment with test compound)−(threshold value of abdominal pain before treatment with test compound)]/[100−(threshold value of abdominal pain before treatment with test compound)]×100.
The analgesic effect was calculated as the dose of the test compound required for 50% control (ID50).

[2] = test system: 5-HTP-induced defecation (diarrhea or loose stool); assay: In vivo 5-hydroxytryptophan (5-HTP)-induced defecation model of mice; design: species or system mouse; conditions: oral administration 30 minutes before 5-HTP 10 mg/kg s.c., fecal score over 30 minutes
Experimental: The tests were conducted by a method of G. J. Sanger et al. (British Journal of Pharmacology, 130: 706-712, 2000).
Male SLC:ICR mice (6 weeks old) were moved to 5stainless steel cages connected together for mice. After the naturalization for at least one hour, a test compound was orally administered (n=10). 30 minutes after, 10 mg/5 mL/kg of 5-HTP or vehicle (5mL/kg of physiological saline for a group for which 5-HTP was not used) was injected subcutaneously. The state of the fecal pellets of each mouse excreted in 30 minutes immediately after the injection was observed [scored as 0 (normal fecal pellets or no fecal pellets) or 1(diarrhea or loose stool)]. The score obtained by subtracting the score of the group to which 5-HTP had not been given from the score of the group to which 5-HTP had been given was taken as 100%. The amount of a test compound for 50% control (ID50) was calculated.

SMILES	ID50 (analgesic effect, threshold value of abdominal pain) [1] [mg/kg]	ID50 (5-HTP-induced defecation) [2] [mg/kg]
CN(C)c1ccc(CCN2CCC[C@@H]2CN2c3cc(Cl)ccc3COc3ccccc32)cc1 [Example 8, (R)-3-Chloro-5,11-dihydro-5-[1-(4-dimethylaminophenethyl)pyrrolidin-2-ylmethyl]dibenzo[b,e][1,4]oxazepine dihydrochloride]	2.6	8.3
Fc1ccc2c(c1)OCc1ccccc1N2C[C@H]1CCCN1CCc1ccc(N2CCCC2)cc1 [Example 12, (R)-8-Fluoro-5,11-dihydro-5-[1-(4-pyrrolidinophenethyl)pyrrolidin-2-yl-methyl]dibenzo[b,e]1,4]oxazepine dihydrochloride]	1.9	–
